This note sets out measurements from BindingDB's records for doi:10.1016/j.bmcl.2005.10.040 (Huazhong University of Science and Technology, 2005).

Assay [1] addresses 4-aminobutyrate aminotransferase, mitochondrial (Homo sapiens, UniProt P80404). Nature of the assay: Inhibitory activity against GABAT.
In assay [2] the target is T1, Succinate-semialdehyde dehydrogenase, mitochondrial (Homo sapiens, UniProt P51649).
T1 sequence (P51649 whole entry): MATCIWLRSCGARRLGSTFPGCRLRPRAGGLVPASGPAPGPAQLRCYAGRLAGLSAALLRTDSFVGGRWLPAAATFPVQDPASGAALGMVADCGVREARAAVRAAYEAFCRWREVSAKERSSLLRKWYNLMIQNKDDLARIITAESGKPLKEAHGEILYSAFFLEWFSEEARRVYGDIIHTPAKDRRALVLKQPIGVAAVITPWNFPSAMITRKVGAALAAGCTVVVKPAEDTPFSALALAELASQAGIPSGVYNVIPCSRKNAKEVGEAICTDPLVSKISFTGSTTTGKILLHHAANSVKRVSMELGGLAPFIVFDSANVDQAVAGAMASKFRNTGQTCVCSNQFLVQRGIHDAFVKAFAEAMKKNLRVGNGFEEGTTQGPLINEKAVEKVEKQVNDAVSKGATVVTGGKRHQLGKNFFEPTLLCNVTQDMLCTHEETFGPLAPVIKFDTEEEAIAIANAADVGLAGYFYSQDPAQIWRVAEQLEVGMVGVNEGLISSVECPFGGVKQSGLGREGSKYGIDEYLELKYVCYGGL
Briefly: Inhibitory activity against SSADH.

Chain of 4-aminobutyrate aminotransferase, mitochondrial (P80404 whole entry): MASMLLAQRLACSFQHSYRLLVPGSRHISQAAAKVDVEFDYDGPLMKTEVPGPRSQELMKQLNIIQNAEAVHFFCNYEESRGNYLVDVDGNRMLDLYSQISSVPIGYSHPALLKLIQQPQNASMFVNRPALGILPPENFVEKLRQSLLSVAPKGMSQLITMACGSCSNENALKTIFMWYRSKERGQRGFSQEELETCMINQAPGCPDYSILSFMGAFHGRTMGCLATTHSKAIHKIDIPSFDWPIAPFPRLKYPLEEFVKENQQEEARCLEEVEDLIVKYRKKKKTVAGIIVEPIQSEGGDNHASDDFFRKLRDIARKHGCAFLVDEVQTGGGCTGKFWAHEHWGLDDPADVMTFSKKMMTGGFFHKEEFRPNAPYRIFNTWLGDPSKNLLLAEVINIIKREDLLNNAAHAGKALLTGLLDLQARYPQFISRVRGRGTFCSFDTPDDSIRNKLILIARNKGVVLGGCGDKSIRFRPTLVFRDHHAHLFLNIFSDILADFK

Usually IC50 stands for the concentration that inhibits the measured activity by half. In the case of `COc1cc(CN=O)ccc1O` [4-hydroxy-3-methoxybenzaldehyde oxime], the IC50 in assay [1] and in assay [2] was more than 1000 µM in each case.
Take `O=NCc1ccc(O)cc1` [4-hydroxybenzaldehyde oxime]: the IC50 in assay [1] and in assay [2] was more than 1000 µM throughout.
